Reference: patent US9353110B2, “Fused heterocyclic compound” (Sumitomo Chemical Company, Limited, priority 2011, dated 2016)

Experiments:
Format in all cases: in vivo
[1] = system: Haemaphysalis longicornis; assay: Test Example 11: coated screw tube against nymphal ticks Haemaphysalis longicornis; conditions: 2 mg compound coated on inner wall of screw tube, 5 non-blood-sucking nymphal ticks, after 2 days
Protocol: Each 2 mg of the present compounds 1, 5, 8, 15-16, 19, 23, 25-27, 30, 37, 40, 49, 61, 63, 99 and 516 was put into a screw tube (Maruemu No. 5; 27×55 mm). Acetone (0.2 ml) was added thereto and sealed with a cap. After dissolving the compound in acetone, the screw tube was rotated and inverted to uniformity coat the solution onto the whole inner wall of the tube. After removing the cap, the solution was air-dried for about 2 hours. Then, non-blood-sucking nymphal ticks, Haemaphysalis longicornis (5 ticks/group) were released into the tube, and the tube was sealed with the cap. After 2 days, the number of dead tick was counted, and a death rate was calculated according to the following equation: Death rate (%)=(Number of dead tick/Number of tested tick)×100

Musca domestica = assay: Test Example 8: filter paper with sucrose bait against Musca domestica; conditions: 500 ppm test solution, 0.7 ml on filter paper, 10 female imagoes, after 24 hours
Protocol: Each test solution was prepared by diluting a formulation containing any of the present compounds 1, 3-5, 8, 15-16, 19-20, 23, 27, 29, 37, 40, 44, 48, 60-61, 64, 72, 74, 518, 523 and 528 as obtained in Formulation Example 5, with water so as to give 500 ppm of the concentration of the active ingredient.
(§1) A filter paper having a diameter of 5.5 cm was spread on the bottom of a polyethylene cup having a diameter of 5.5 cm and each test solution (0.7 ml) was added dropwise onto the filter paper. As a bait sucrose (30 mg) was uniformly placed on the filter paper. Into the polyethylene cup, 10 female imagoes of Musca domestica were released and the cup was sealed with a lid. After 24 hours, the number of surviving Musca domestica was examined and the death rate of the pest was calculated.

Blattalla germanica = assay: Test Example 9: filter paper with sucrose bait against Blattalla germanica; conditions: 500 ppm test solution, 0.7 ml on filter paper, 2 male imagoes, after 6 days
Protocol: Each test solution was prepared by diluting a formulation containing any of the present compounds 4-5, 19-20, 28-29, 40, 44, 48, 60, 71-74, 89, 523 and 528 as obtained in Formulation Example 5, with water so as to give 500 ppm of the concentration of the active ingredient.
as §1, with “2 male” for “10 female”, “Blattalla germanica” for “Musca domestica”, “6 days,” for “24 hours,”

SMILES	death rate [1]	death rate (Musca domestica)	death rate (Blattalla germanica)
CCSc1cccnc1-c1nc2cc(C(F)(F)F)cnc2n1C [compound 1]	100%	100%	
CCS(=O)(=O)c1cccnc1-c1nc2cc(C(F)(F)F)cnc2n1C [compound 3]		100%	
CCSc1cc(C(F)(F)F)cnc1-c1nc2cc(C(F)(F)F)cnc2n1C [compound 4]			100%
CCS(=O)(=O)c1cc(C(F)(F)F)cnc1-c1nc2cc(C(F)(F)F)cnc2n1C [compound 5]	100%	100%	100%
CCS(=O)(=O)c1cccnc1-c1nc2cc(C(F)(F)C(F)(F)F)cnc2n1C [compound 8]	100%	100%	
CCS(=O)(=O)c1cccnc1-c1nc2cc(SC(F)(F)F)cnc2n1C [compound 15]	100%	100%	
CCS(=O)(=O)c1cccnc1-c1nc2cc(S(=O)(=O)C(F)(F)F)cnc2n1C [compound 16]	100%	100%	
CCS(=O)(=O)c1cc(C(F)(F)F)cnc1-c1nc2cc(C(F)(F)C(F)(F)F)cnc2n1C [compound 19]	100%	100%	100%
CCS(=O)(=O)c1cccnc1-c1nc2cc([S+]([O-])C(F)(F)F)cnc2n1C (stereo not shown) [compound 20]		100%	100%
CCS(=O)(=O)c1cc(C(F)(F)F)cnc1-c1nc2cc(S(=O)(=O)C(F)(F)F)cnc2n1C [compound 25]	100%		
CCS(=O)(=O)c1cccnc1-c1nc2cc(C(F)(F)C(F)(F)F)ccc2n1C [compound 27]	100%	100%	
CCSc1cc(C(F)(F)F)cnc1-c1nc2cc(SC(F)(F)F)cnc2n1C [compound 28]			100%
CCSc1cccnc1-c1nc2cc(C(F)(F)F)ccc2n1C [compound 30]	100%		
CCS(=O)(=O)c1cc(C(F)(F)F)cnc1-c1nc2cc(C(F)(F)C(F)(F)F)ccc2n1C [compound 40]	100%	100%	100%
CCS(=O)(=O)c1cc(C(F)(F)F)cnc1-c1nc2cc(SC(F)(F)F)cnc2n1C [compound 44]		100%	100%
CCS(=O)(=O)c1cc(C(F)(F)F)cnc1-c1nc2cc(C(F)(F)F)c[n+]([O-])c2n1C [compound 48]		100%	100%
CCSc1cccnc1-c1nc2cc(OC(F)(F)F)ccc2n1C [compound 49]	100%		
CCS(=O)(=O)c1cc(C(F)(F)F)cnc1-c1nc2cc([S+]([O-])C(F)(F)F)cnc2n1C (stereo not shown) [compound 60]		100%	100%
CCSc1cccnc1-c1nc2cc(SC(F)(F)F)ccc2n1C [compound 61]	100%	100%	
CCS(=O)(=O)c1cccnc1-c1nc2cc(SC(F)(F)F)ccc2n1C [compound 63]	100%		
CCS(=O)(=O)c1cccnc1-c1nc2cc(S(=O)(=O)C(F)(F)F)ccc2n1C [compound 64]		100%	
CCSc1cc(C(F)(F)C(F)(F)F)cnc1-c1nc2cc(C(F)(F)F)cnc2n1C [compound 71]			100%
CCS(=O)(=O)c1cc(C(F)(F)C(F)(F)F)cnc1-c1nc2cc(C(F)(F)F)cnc2n1C [compound 72]		100%	
CCS(=O)(=O)c1cc(C(F)(F)C(F)(F)F)cnc1-c1nc2cc(C(F)(F)C(F)(F)F)cnc2n1C [compound 74]		100%	100%
CCS(=O)(=O)c1cc(C(F)(F)F)cnc1-c1nc2cc(C(F)(F)F)c(Cl)nc2n1C [compound 89]			100%
CCS(=O)(=O)c1cc(C(F)(F)F)cnc1-c1nc2cc(C(F)(F)F)c(N(C)C)nc2n1C [compound 99]	100%		
CCSc1cccnc1-c1nc2cc(C(F)(F)F)cc(Sc3ccccc3)c2n1C [compound 516]	100%		
CCS(=O)(=O)c1cccnc1-c1nc2cc(C(F)(F)F)cc(S(=O)(=O)CC(F)(F)F)c2n1C [compound 518]		100%	
CCS(=O)(=O)c1cc(C(F)(F)F)cnc1-c1nc2cc(C(F)(F)C(F)(F)F)c[n+]([O-])c2n1C [compound 523]		100%	100%
CCS(=O)(=O)c1cc(C(OC)(OC)OC)cnc1-c1nc2cc(C(F)(F)C(F)(F)F)cnc2n1C [compound 528]		100%	100%
